A short description of series [1]: Cytotoxicity against LPS-induced mouse BV2 cells assessed as cell viability after 24 hrs by MTT assay. Type of series: cell-based, BV-2. Also on record: concentration or dose not given beside the values. The following applies: read-out: Activity. Background: Formazan colour is commonly taken as a measure of viable cells.
A short description of series [2]: Antiinflammatory activity in mouse BV2 cells assessed as inhibition of LPS-induced NO production incubated for 24 hrs measured after 15 mins by Griess assay. Type of series: functional, cell-based. Conditions: BV-2. (In general: Nitrite, measured by Griess reagent, commonly stands in for NO production.)

pIC50: −log10 of the molar value.

For orientation: pIC50 means −log10 of the IC50, conventionally taken in molar units.

As to `CC(CC(=O)C[C@@H](C)[C@H]1C[C@H](O)[C@@]2(C)C3=C(C(=O)C[C@]12C)[C@@]1(C)CCC(=O)C(C)(C)[C@@H]1C[C@@H]3O)C(=O)O` (stereo partly specified), the viability at 24 h in series [1] was 97.9%. Further, the pIC50 in series [2] was 4.87.

On to `CC(=O)O[C@@H]1C(=O)C2=C(C(=O)C[C@H]3C(C)(C)[C@@H](O)CC[C@]23C)[C@]2(C)C(=O)C[C@H](/C(C)=C\C(=O)CC(C)C(=O)O)[C@@]12C` (stereo partly specified), for which the viability at 24 h in series [1] was 95.1%. In addition, the pIC50 in series [2] is 4.98.

With `CC(CC(=O)C[C@@H](C)[C@H]1C[C@H](O)[C@@]2(C)C3=C(C(=O)C[C@]12C)[C@@]1(C)CC[C@H](O)C(C)(C)[C@@H]1C[C@@H]3O)C(=O)O` (stereo partly specified), the viability at 24 h in series [1] is 90.7%. In series [2], the pIC50 was 4.87.

Take `CC(CC(=O)C[C@@H](C)[C@H]1CC(=O)[C@@]2(C)C3=C(C(=O)[C@@H](O)[C@]12C)[C@@]1(C)CCC(=O)C(C)(C)[C@@H]1C[C@@H]3O)C(=O)O` (stereo partly specified): the viability at 24 h in series [1] was 92.3%. Further, in series [2], the pIC50 is 5.23.

With `CC(CC(=O)C[C@@H](C)[C@H]1C[C@H](O)[C@@]2(C)C3=C(C(=O)C[C@]12C)[C@@]1(C)CC[C@H](O)[C@@](C)(CO)[C@@H]1C[C@@H]3O)C(=O)O` (stereo partly specified), the viability at 24 h in series [1] was determined as 97.8%. For the same compound, the pIC50 in series [2] is 5.38.

With `CC(=O)O[C@@H]1C(=O)C2=C(C(=O)C[C@H]3C(C)(C)C(=O)CC[C@]23C)[C@]2(C)C(=O)C[C@H](/C(C)=C\C(=O)CC(C)C(=O)O)[C@@]12C` (stereo partly specified), in series [1], the viability at 24 h is 94.3%. The pIC50 in series [2] was 4.55.

On to `C/C(=C/C(=O)CC(C)C(=O)O)[C@H]1CC(=O)[C@@]2(C)C3=C(C(=O)C[C@]12C)[C@@]1(C)CCC(=O)C(C)(C)[C@@H]1C[C@@H]3O` (stereo partly specified), for which the viability at 24 h in series [1] stood at 96.5%. Moreover, the pIC50 in series [2] is 4.86.

Turning to `C/C(=C/C(=O)CC(C)C(=O)O)[C@H]1CC(=O)[C@@]2(C)C3=C(C(=O)[C@@H](O)[C@]12C)[C@@]1(C)CC[C@H](O)C(C)(C)[C@@H]1CC3=O` (stereo partly specified), the viability at 24 h in series [1] turned out to be 94.5%. In addition, the pIC50 in series [2] is 4.59.

In the case of `C/C(=C/C(=O)CC(C)C(=O)O)[C@H]1C[C@H](O)[C@@]2(C)C3=C(C(=O)C[C@]12C)[C@@]1(C)CCC(=O)C(C)(C)[C@@H]1C[C@@H]3O` (stereo partly specified), the viability at 24 h in series [1] was 92.5%. Moreover, in series [2], the pIC50 was 5.06.

For the compound `C/C(=C/C(=O)CC(C)C(=O)O)[C@H]1CC(=O)[C@@]2(C)C3=C(C(=O)[C@@H](O)[C@]12C)[C@@]1(C)CC[C@H](O)C(C)(C)[C@@H]1C[C@@H]3O` (stereo partly specified), in series [1], the viability at 24 h was 93.5%. Further, the pIC50 in series [2] was 5.02.

For `CC(CC(=O)C[C@@H](C)[C@H]1C[C@H](O)[C@@]2(C)C3=C(C(=O)C[C@]12C)[C@@]1(C)CC[C@H](O)C(C)(C)[C@@H]1CC3=O)C(=O)O` (stereo partly specified), the viability at 24 h in series [1] is 89.3%. Besides, the pIC50 in series [2] was 5.19.

As to `CC(CC(=O)C[C@](C)(O)[C@H]1CC(=O)[C@@]2(C)C3=C(C(=O)[C@@H](O)[C@]12C)[C@@]1(C)CC[C@H](O)C(C)(C)[C@@H]1C[C@@H]3O)C(=O)O` (stereo partly specified), in series [1], the viability at 24 h is 96.3%. In addition, the pIC50 in series [2] was 4.67.

As to `C/C(=C/C(=O)CC(C)C(=O)O)[C@H]1C[C@H](O)[C@@]2(C)C3=C(C(=O)C[C@]12C)[C@@]1(C)CCC(=O)C(C)(C)[C@@H]1CC3` (stereo partly specified), in series [1], the viability at 24 h was 89.3%. In addition, the pIC50 in series [2] was 4.57.

With `CC(CC(=O)C[C@@H](C)[C@H]1CC(=O)[C@@]2(C)C3=C(C(=O)C[C@]12C)[C@@]1(C)CCC(=O)C(C)(C)[C@@H]1CC3=O)C(=O)O` (stereo partly specified), in series [1], the viability at 24 h was determined as 97.5%. The pIC50 in series [2] is 5.03.

As to `CC(CC(=O)C[C@@H](C)[C@H]1CC(=O)[C@@]2(C)C3=C(C(=O)C[C@]12C)[C@@]1(C)CC[C@H](O)C(C)(C)[C@@H]1C[C@@H]3O)C(=O)O` (stereo partly specified) [GANODERIC ACID B], the viability at 24 h in series [1] was 94.7%. Besides, in series [2], the pIC50 was 4.69.

On to `CC(CC(=O)C[C@@H](C)[C@H]1CC(=O)[C@@]2(C)C3=C(C(=O)[C@@H](O)[C@]12C)[C@@]1(C)CC[C@H](O)C(C)(C)[C@@H]1CC3=O)C(=O)O` (stereo partly specified) [GANODERIC ACID C6], for which the viability at 24 h in series [1] is 91.6%. The pIC50 in series [2] was 4.81.

On to `CC(CC(=O)C[C@@H](C)[C@H]1CC(=O)[C@@]2(C)C3=C(C(=O)C[C@]12C)[C@@]1(C)CCC(=O)C(C)(C)[C@@H]1C[C@@H]3O)C(=O)O` (stereo partly specified) [GANODERIC ACID D], for which the viability at 24 h in series [1] stood at 93.3%. The pIC50 in series [2] was 4.96.

Take `CC(=O)O[C@@H]1C(=O)C2=C(C(=O)C[C@H]3C(C)(C)C(=O)CC[C@]23C)[C@]2(C)C(=O)C[C@H]([C@H](C)CC(=O)CC(C)C(=O)O)[C@@]12C` (stereo partly specified) [GANODERIC ACID F]: the viability at 24 h in series [1] is 90.6%. Further, the pIC50 in series [2] was 4.62.

As for `CC(CC(=O)C[C@@H](C)[C@H]1CC(=O)[C@@]2(C)C3=C(C(=O)[C@@H](O)[C@]12C)[C@@]1(C)CC[C@H](O)C(C)(C)[C@@H]1C[C@@H]3O)C(=O)O` (stereo partly specified) [GANODERIC ACID G], the viability at 24 h in series [1] was 95.2%. Moreover, the pIC50 in series [2] was 5.24.

As for `CC(=O)O[C@@H]1C(=O)C2=C(C(=O)C[C@H]3C(C)(C)[C@@H](O)CC[C@]23C)[C@]2(C)C(=O)C[C@H]([C@H](C)CC(=O)CC(C)C(=O)O)[C@@]12C` (stereo partly specified) [GANODERIC ACID H], in series [1], the viability at 24 h is 90.4%. The pIC50 in series [2] is 4.90.

Consider `CC(CC(=O)C[C@@H](C)[C@H]1C[C@H](O)[C@@]2(C)C3=C(C(=O)C[C@]12C)[C@@]1(C)CCC(=O)C(C)(C)[C@@H]1CC3=O)C(=O)O` (stereo partly specified) [GANODERIC ACID J], for which the viability at 24 h in series [1] worked out at 93.7%. The pIC50 in series [2] is 4.66.

Turning to `CC(=O)O[C@@H]1C(=O)C2=C([C@@H](O)C[C@H]3C(C)(C)[C@@H](O)CC[C@]23C)[C@]2(C)C(=O)C[C@H]([C@H](C)CC(=O)CC(C)C(=O)O)[C@@]12C` (stereo partly specified) [GANODERIC ACID K], in series [1], the viability at 24 h turned out to be 98.5%. The pIC50 in series [2] is 5.44.

With `C[C@H](CC[C@H](O)[C@](C)(O)CO)[C@H]1CC[C@@]2(C)C3=CC[C@H]4C(C)(C)C(=O)CC[C@]4(C)C3=CC[C@]12C` [GANODERMANONTRIOL], in series [1], the viability at 24 h turned out to be 85.5%. Besides, the negative-log IC50 (pIC50) in series [2] was 4.63.

`C/C(=C\CC[C@@H](C)[C@H]1CC[C@@]2(C)C3=CC[C@H]4C(C)(C)[C@@H](O)CC[C@]4(C)C3=CC[C@]12C)CO` [GANODEROL B]: in series [1], the viability at 24 h worked out at 91.3%. In addition, the pIC50 in series [2] is 4.86.

On to `CC(CC(=O)C[C@@H](C)[C@H]1C[C@H](O)[C@@]2(C)C3=C(C(=O)C[C@]12C)[C@@]1(C)CCC(=O)C(C)(C)[C@@H]1CC3)C(=O)O` (stereo partly specified) [GANOLUCIDIC ACID A], for which the viability at 24 h in series [1] came to 95.2%. Moreover, in series [2], the pIC50 was 4.60.

Regarding `COC(=O)C(C)CC(=O)C[C@@H](C)[C@H]1C[C@H](O)[C@@]2(C)C3=C(C(=O)C[C@]12C)[C@@]1(C)CCC(=O)C(C)(C)[C@@H]1C[C@@H]3O` (stereo partly specified) [METHYL GANODERATE A], the viability at 24 h in series [1] was found to be 91.3%. Also, the pIC50 in series [2] was 5.10.

`COC(=O)CC[C@@H](C)[C@H]1CC(=O)[C@@]2(C)C3=C(C(=O)[C@@H](O)[C@]12C)[C@@]1(C)CC[C@H](O)C(C)(C)[C@@H]1CC3=O` [METHYL LUCIDENATE L]: in series [1], the viability at 24 h came to 83.5%. Moreover, in series [2], the pIC50 is 4.65.

Regarding `O=c1c(O)c(-c2ccc(O)c(O)c2)oc2cc(O)cc(O)c12` [QUERCETIN], the viability at 24 h in series [1] was 92.5%. Moreover, in series [2], the pIC50 was 4.82.

The record behind these values is ChEMBL document CHEMBL3826961, “Lanostane triterpenoids from Ganoderma curtisii and their NO production inhibitory activities of LPS-induced microglia” (Bioorg Med Chem Lett, 2016).
